Data on three molecules can be found in patent US12162878B2 (HINOVA PHARMACEUTICALS INC., priority 2018, dated 2024).

For assay [1], the system named is Vcap cells. The experiment in a line: Inhibition of proliferation of Vcap cells (CCK-8). The class given is cell-based, human. Here is the method:
• Vcap cell line (Cell Bank of Chinese Academy of Sciences, TCHu220) • FBS (Gibco, Cat. No. 10099-141) • 0.01M PBS (Biosharp, Cat. No. 162262) • DMEM HIGH Glucose (Hyclone, Cat. No. SH30243.01) • Penicillin-Streptomycin (Hyclone, Cat. No. SV30010) • Cell counting kit-8 (Signalway Antibody, Cat. No. CP002) • DMSO (Sigma, Cat. No. D5879) • Centrifuge Tube, 15 ml (Excell Bio, Cat. No. CS015-0001) • Cell Culture Dish, (Excell Bio, Cat. No. CS016-0128) • 96-well cell culture cluster (Corning, Cat. No. 3599) 2. Experimental Method
1) Vcap cells were subcultured in cell culture media, and the cells in good growth condition were seeded in a 96-well plate, 80 μL for each well, thus the number of cells per well was 10000, then the plate was cultured overnight in a 37° C., 5% CO2 cell incubator.
2) The drug was prepared with dimethyl sulfoxide (DMSO) as a 10 mM stock solution. Prior to use, the solution was diluted 3 times with DMSO, and then diluted with a 3-fold gradient to obtain 9 concentration gradients. Then, each concentration of the compound was further diluted 200 times with the culture media (to ensure that DMSO concentration in the culture system was 0.1%), 2 repeat wells for each concentration. The diluted solution of each compound (20 μL) was added to the cell culture well (with a final concentration of 10 μM, 3.3 μM, 1.1 μM . . . ), and shaken gently for mixing. In addition, three negative control wells containing only cells and three blank control wells containing only culture medium (20 μL DMSO diluted 200 times with culture medium being added to six wells) were included.
(§1) (1) After culturing for 6 days, 10 μL CCK-8 was added to each well and cultured for additional 2.5 h in a 37° C., 5% CO2 cell incubator.
(§2) (2) The absorbance (OD value) at 450 nm was measured with a multifunctional microplate reader.
(§3) (3) The data was analyzed by the Dose-response-inhibition equation in the software GraphPad Prism6, and the IC50 value was obtained.

The subject of assay [2] is CWR22RV1 cells. The experiment in a line: Compound in combination with androgen receptor inhibitor HC-1119, proliferation of CWR22RV1 cells (CCK-8). The format is cell-based, human. Conditions: for IC50: Homo sapiens, CWR22Rv1, 144 h, 6 days, read-out: IC50 for inhibition on the activity of CWR22RV1. How it is done:
• CWR22RV1 cell line (Cell Bank of Chinese Academy of Sciences, TCHu100) • FBS (Gibco, Cat. No. 10099-141) • 0.01M PBS (Biosharp, Cat. No. 162262) • RIPM1640 (Hyclone, Cat. No. 308090.01) • Penicillin-Streptomycin (Hyclone, Cat. No. SV30010) • Cell counting kit-8 (Signalway Antibody, Cat. No. CP002) • DMSO (Sigma, Cat. No. D5879) • Centrifuge Tube, 15 ml (Excell Bio, Cat. No. CS015-0001) • Cell Culture Dish, (Excell Bio, Cat. No. CS016-0128) • 96-well cell culture cluster (Corning, Cat. No. 3599) Experimental Method:
1) CWR22RV1 cells were subcultured in cell culture media, and the cells in good growth condition were seeded in a 96-well plate, 60 μL for each well, thus the number of cells per well was 2000, then the plate was cultured overnight in a 37° C., 5% CO2 cell incubator.
(§4) 2) The drug was prepared with dimethyl sulfoxide (DMSO) as a 10 mM stock solution. Prior to use, the solution was diluted 3 times with DMSO, and then diluted with a 3-fold gradient to obtain 9 concentration gradients. Then, each concentration of the compound was further diluted 200 times with the culture media (to ensure that DMSO concentration in the culture system was 0.1%), 2 repeat wells for each concentration. The diluted solution of each compound (20 μL) was added to the cell culture well (with a final concentration of 10 μM, 3.3 μM, 1.1 μM . . . ); while the solution of HC-1119 was diluted with culture media to the concentrations of 50 μM and 15 μM, respectively, and the diluted solution of HC-1119 was added to the corresponding cell culture well (with a final concentration of 10 μM, 3 μM), then shaken gently for mixing. In addition, three negative control wells containing only cells and three blank control wells containing only culture media (20 μL DMSO diluted 200 times with culture media being added to six wells) were included.
as §1, §2, §3

Assay [3] concerns Vcap cells. As to the kind of experiment: Compound in combination with androgen receptor inhibitor HC-1119, proliferation of Vcap cells (CCK-8). The class given is cell-based, human. Conditions: for IC50: Homo sapiens, VCaP, 144 h, 6 days, read-out: IC50 for inhibition on the activity of Vcap. Here is the method: • Vcap cell line (Cell Bank of Chinese Academy of Sciences, TCHu220) • FBS (Gibco, Cat. No. 10099-141) • 0.01M PBS (Biosharp, Cat. No. 162262) • DMEM HIGH Glucose (Hyclone, Cat. No. SH30243.01) • Penicillin-Streptomycin (Hyclone, Cat. No. SV30010) • Cell counting kit-8 (Signalway Antibody, Cat. No. CP002) • DMSO (Sigma, Cat. No. D5879) • Centrifuge Tube, 15 ml (Excell Bio, Cat. No. CS015-0001) • Cell Culture Dish (Excell Bio, Cat. No. CS016-0128) • 96-well cell culture cluster (Corning, Cat. No. 3599) 2. Experimental Method
1) Vcap cells were subcultured in cell culture media, and the cells in good growth condition were seeded in a 96-well plate, 60 μL for each well, thus the number of cells per well was 10000, then the plate was cultured overnight in a 37° C., 5% CO2 cell incubator.
as §4, with “10 μM, 1 μM), then” for “10 μM, 3 μM), then”
as §1, §2, §3

The target in the next assay is BRD2(1,2) (Homo sapiens (Human), UniProt P25440). The experiment in a line: AlphaScreen binding of compounds on BRD2 (D1+D2). The following applies: read-out: IC50 against BRD2(1,2). The source says:
(§5) Homogeneous time-resolved fluorescence technology (HTRF) was used to determine the binding effect of compounds on BRD4 (D1+D2) and BRDT (D1) proteins, as well as AlphaScreen method was used to detect the binding effect of compounds on BRD2 (D1+D2) and BRD3 (D1+D2) proteins.
(§6) The compounds were screened in vitro, and each compound was serially diluted to 10 concentrations. Four proteins BRD4 (D1+D2), BRDT (D1), BRD2 (D1+D2) and BRD3 (D1+D2) were chosen to determine the IC50 values of compounds (see Table 1).
(§7) 4. Compound treatment: The test compound was dissolved in dimethyl sulfoxide (DMSO), and the storage concentration was 10 mM.
(§8) 6. AlphaScreen Detection Procedures:
(§9) 1) Preparing One-Fold Concentration of Detection Buffer
(§10) One-fold concentration of detection buffer was prepared (Improved HEPES buffer)
(§11) 2) Gradient Dilution of Compounds
(§12) Echo automatic sampler was used to transfer the compound to the detection plate for gradient dilution, so that the final concentration of dimethyl sulfoxide was 0.1%.
(§13) 3) Preparation of Protein Solution
(§14) The protein was dissolved in one-fold concentration of detection buffer.
(§15) 4) Preparation of Substrate Solution
(§16) The peptide was dissolved in one-fold concentration of detection buffer to prepare the substrate solution.
(§17) 5) 5 μL protein solution was transferred to the detection plate, and one-fold concentration of detection buffer (5 μL) was placed in the negative control wells.
(§18) 6) The plate was incubated for 15 min at room temperature.
(§19) 7) 5 μL substrate solution was added to each well to start the reaction.
(§20) 8) The plate was incubated for additional 60 min at room temperature.
(§21) 9) Preparation of acceptor solution and donor solution in one-fold concentration of assay buffer Acceptor solution (15 μL) and donor solution (15 μL) were respectively added, and then incubated at room temperature for 60 min and protected against exposure to light.
(§22) 10) The endpoint was read in EnSpire and Alpha mode.
(§23) The experimental data were recorded in an Excel file and equation (1) was used to get the inhibition rate. Inh%=(Max−Signal)/(Max−Min)*100 Equation (1):
(§24) The obtained data were input into GraphPad software, and equation (2) was used to obtain the IC50 value. Y=Bottom+(Top−Bottom)/(1+10^((Log IC50−X)*Hill Slope)) Formula (2): […]
(§25) Wherein, Y axis was the inhibition rate, and the X axis was the compound concentration.
In general terms: Bead proximity is the source of the signal in Alpha formats.

The target of the next assay is BRD4(1,2) (Homo sapiens (Human), UniProt O60885). As to the kind of experiment: HTRF binding of compounds on BRD4 (D1+D2). Conditions: read-out: IC50 against BRD4(1,2).
Excerpt: as §5, §6, §7
(§26) 5. Steps for Homogeneous Time-Resolved Fluorescence Detection:
(§27) 1) According to the arrangement of the detection plate, all compounds were diluted in Echo plate.
(§28) The final dilution concentration of DMSO is 0.1%.
(§29) 2) The compound or DMSO was transferred to a 384-well detection plate with the Echo automatic sampler.
(§30) 3) Two-fold concentration of the mixture of protein and peptide was added to the detection plate.
(§31) 4) Two-fold concentration of mixed detection solution was added to the test plate, and shaken for 30 s.
(§32) 5) Incubating for 2 h at room temperature.
(§33) 6) Fluorescence signal was read on Envision multi-function microplate reader (excitation light wavelength being 340 nm, and emission light wavelength being 615 nm and 665 nm).
(§34) The experimental data were recorded in an Excel file, and equation (1) was used to obtain the inhibition rate. Inh%=(Max−Signal)/(Max−Min)*100 Equation (1):
(§35) The obtained data was recorded in GraphPad software, and equation (2) was used to provide the IC50 values. Y=Bottom+(Top−Bottom)/(1+10^((Log IC50−X)*Hill Slope)) Equation (2): […]
(§36) Y axis was the inhibition rate, and X axis was the compound concentration.

A further assay has as its target BRD3(1,2) (Homo sapiens (Human), UniProt Q15059). The experiment in a line: AlphaScreen binding of compounds on BRD3 (D1+D2). Conditions: read-out: IC50 against BRD3(1,2).
Excerpt: as §5, §6, §7, §8, §9, §10, §11, §12, §13, §14, §15, §16, §17, §18, §19, §20, §21, §22, §23, §24, §25

The next assay deals with BRDT(D1) (Homo sapiens (Human), UniProt Q58F21). The experiment in a line: HTRF binding of compounds on BRDT (D1). Conditions: read-out: IC50 against BRDT(D1).
Excerpt: as §5, §6, §7, §26, §27, §28, §29, §30, §31, §32, §33, §34, §35, §36
A general note: In TR-FRET formats the signal depends on donor and acceptor labels being close together.

In assay [4] the test system is CWR22RV1 cells. As to the kind of experiment: Inhibition of proliferation of CWR22RV1 cells (CCK-8). The format is cell-based, human. The following applies: Homo sapiens, CWR22Rv1, 144 h, 6 days. The gist of the method:
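Cells seeded at 1500/well, cultured overnight, then exposed to compounds in 3-fold dilutions (9 concentrations from 10 μM top final, 0.1% DMSO) for 6 days at 37 °C. Viability read by CCK-8 absorbance at 450 nm after 2.5 h; IC50 from dose-response inhibition fit.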

Chain of BRD2(1,2) (P25440 65-459): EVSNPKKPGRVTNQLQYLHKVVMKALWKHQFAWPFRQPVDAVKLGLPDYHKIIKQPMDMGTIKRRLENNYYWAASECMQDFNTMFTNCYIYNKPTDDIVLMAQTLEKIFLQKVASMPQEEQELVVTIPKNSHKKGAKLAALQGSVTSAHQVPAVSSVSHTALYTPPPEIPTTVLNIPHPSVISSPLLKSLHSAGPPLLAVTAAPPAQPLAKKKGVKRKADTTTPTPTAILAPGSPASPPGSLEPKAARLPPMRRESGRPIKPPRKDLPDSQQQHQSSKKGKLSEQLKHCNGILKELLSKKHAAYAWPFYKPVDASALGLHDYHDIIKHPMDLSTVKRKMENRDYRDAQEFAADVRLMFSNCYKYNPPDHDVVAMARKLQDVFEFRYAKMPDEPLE
Chain of BRD3(1,2) (Q15059 29-417): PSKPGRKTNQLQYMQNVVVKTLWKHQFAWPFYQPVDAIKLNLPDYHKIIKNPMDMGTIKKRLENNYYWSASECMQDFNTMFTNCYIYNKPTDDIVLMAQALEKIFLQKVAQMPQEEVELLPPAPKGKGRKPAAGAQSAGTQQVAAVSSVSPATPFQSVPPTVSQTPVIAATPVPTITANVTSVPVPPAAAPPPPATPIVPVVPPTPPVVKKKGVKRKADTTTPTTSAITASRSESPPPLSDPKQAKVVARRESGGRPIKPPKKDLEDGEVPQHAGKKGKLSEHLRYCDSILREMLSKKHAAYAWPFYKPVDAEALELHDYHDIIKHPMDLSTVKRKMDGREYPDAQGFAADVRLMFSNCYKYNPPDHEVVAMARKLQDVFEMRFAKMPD

In general, IC50 refers to the concentration that inhibits the measured activity by half. Consider `[2H]C([2H])([2H])n1cc(-c2cc(S(=O)(=O)CC)ccc2N2CCC3(CC2)CC3(F)F)c2cc[nH]c2c1=O` [Compound 231, 4-(2-(1,1-difluoro-6-aza-spiro[2.5]octan-6-yl)-5-(ethylsulfonyl)phenyl)-6-trideuteromethyl-1H-pyrrolo[2,3-c]pyridin-7(6H)-one], for which, in the assay with Vcap cells [1], the “inhibitory action on Vcap cells (in words)” value is listed as “effective inhibitory action”. Besides, the IC50 was found to be 3.9 nM in the assay with Vcap cells [1] (Homo sapiens, 144 h, 6 days, CCK-8); 1.8 nM in the assay on CWR22RV1 cells [2] (compound alone, CWR22RV1 cells); 0.65 nM with CWR22RV1 cells [2] (in combination with 3 μM HC-1119, CWR22RV1 cells); 0.51 nM with CWR22RV1 cells [2] (in combination with 10 μM HC-1119, CWR22RV1 cells); 3.9 nM in the assay with Vcap cells [3] (compound alone, Vcap cells); 0.076 nM in the assay with Vcap cells [3] (in combination with 1 μM HC-1119, Vcap cells). Moreover, the IC50 in the assay on Vcap cells [3] (in combination with 10 μM HC-1119, Vcap cells) was 0.027 nM. Further, the “effect of combination with HC-1119 on inhibitory action on CWR22RV1 cells (in words)” value with CWR22RV1 cells [2] (in combination with HC-1119, CWR22RV1 cells) was “improve the inhibitory action”. The “effect of combination with HC-1119 on inhibitory action on Vcap cells (in words)” value in the assay on Vcap cells [3] (in combination with HC-1119, Vcap cells) is reported as “improve the inhibitory action”.
For the molecule `[2H]C([2H])([2H])n1cc(-c2cc(S(=O)(=O)N3CC[C@@H](O)C3)cnc2N2CCC3(CC2)CC3)c2cc[nH]c2c1=O` [Compound 242], the IC50 amounted to 1.5 nM at BRD2(1,2); 9.9 nM on BRD4(1,2); 5.3 nM on BRD3(1,2); 19 nM at BRDT(D1); 2.2 nM in the assay with CWR22RV1 cells [4].
Turning to `[2H]C([2H])([2H])n1cc(-c2cc(S(=O)(=O)NC)ccc2N2CCC3(CC2)CC3)c2cc[nH]c2c1=O` [Compound 202, N-methyl-3-(6-trideuteromethyl-7-oxo-6,7-dihydro-1H-pyrrolo [2,3-c]pyridin-4-yl)-4-(6-aza-spiro[2.5]octan-6-yl)benzenesulfonamide], the IC50 on BRD2(1,2) is 1.6 nM; at BRD4(1,2), 5.1 nM; at BRD3(1,2), 4.5 nM; at BRDT(D1), 16 nM; with CWR22RV1 cells [4] it was 0.5 nM.
